ChEMBL document CHEMBL5244205, “Discovery of tricyclic dipyrrolopyridine derivatives as novel JAK inhibitors” (Bioorg Med Chem, 2017)

Key:
[1] = target: Calcium/calmodulin-dependent protein kinase type II subunit alpha (Homo sapiens, UniProt Q9UQM7); assay: Inhibition of CAMK2alpha (unknown origin)
[2] = Inhibition of SYK (unknown origin); set-up: species or system Homo sapiens
[3] = target: Glycogen synthase kinase-3 beta (Homo sapiens, UniProt P49841); assay: Inhibition of GSK3beta (unknown origin)
[4] = target: Mitogen-activated protein kinase 11 (Homo sapiens, UniProt Q15759); assay: Inhibition of P38beta (unknown origin)
[5] = Volume of distribution in Sprague-Dawley rat at 1 mg/kg, iv measured up to 24 hrs by LC-MS/MS analysis; format: ADME, organism-based; details: in vivo
[6] = AUC (0 to 24 hrs) in Sprague-Dawley rat at 1 mg/kg, po measured up to 24 hrs by LC-MS/MS analysis; format: ADME, organism-based; set-up: dose 1 mg/kg, time < 24 hrs, route po; details: in vivo
[7] = target: Tyrosine-protein kinase ABL1 (Homo sapiens, UniProt P00519); assay: Inhibition of ABL (unknown origin)
[8] = target: RAC-alpha serine/threonine-protein kinase (Homo sapiens, UniProt P31749); assay: Inhibition of AKT1 (unknown origin)
[9] = target: Mitogen-activated protein kinase kinase kinase 1 (Homo sapiens, UniProt Q13233); assay: Inhibition of MAP3K1 (unknown origin)
Angiopoietin-1 receptor = Angiopoietin-1 receptor (Homo sapiens, UniProt Q02763); assay: Inhibition of TIE2 (unknown origin)
[10] = target: Inhibitor of nuclear factor kappa-B kinase subunit beta (Homo sapiens, UniProt O14920); assay: Inhibition of IKKB (unknown origin)
[11] = target: T1, Tyrosine-protein kinase JAK3 (Homo sapiens, UniProt P52333)
T1 sequence (P52333 whole entry): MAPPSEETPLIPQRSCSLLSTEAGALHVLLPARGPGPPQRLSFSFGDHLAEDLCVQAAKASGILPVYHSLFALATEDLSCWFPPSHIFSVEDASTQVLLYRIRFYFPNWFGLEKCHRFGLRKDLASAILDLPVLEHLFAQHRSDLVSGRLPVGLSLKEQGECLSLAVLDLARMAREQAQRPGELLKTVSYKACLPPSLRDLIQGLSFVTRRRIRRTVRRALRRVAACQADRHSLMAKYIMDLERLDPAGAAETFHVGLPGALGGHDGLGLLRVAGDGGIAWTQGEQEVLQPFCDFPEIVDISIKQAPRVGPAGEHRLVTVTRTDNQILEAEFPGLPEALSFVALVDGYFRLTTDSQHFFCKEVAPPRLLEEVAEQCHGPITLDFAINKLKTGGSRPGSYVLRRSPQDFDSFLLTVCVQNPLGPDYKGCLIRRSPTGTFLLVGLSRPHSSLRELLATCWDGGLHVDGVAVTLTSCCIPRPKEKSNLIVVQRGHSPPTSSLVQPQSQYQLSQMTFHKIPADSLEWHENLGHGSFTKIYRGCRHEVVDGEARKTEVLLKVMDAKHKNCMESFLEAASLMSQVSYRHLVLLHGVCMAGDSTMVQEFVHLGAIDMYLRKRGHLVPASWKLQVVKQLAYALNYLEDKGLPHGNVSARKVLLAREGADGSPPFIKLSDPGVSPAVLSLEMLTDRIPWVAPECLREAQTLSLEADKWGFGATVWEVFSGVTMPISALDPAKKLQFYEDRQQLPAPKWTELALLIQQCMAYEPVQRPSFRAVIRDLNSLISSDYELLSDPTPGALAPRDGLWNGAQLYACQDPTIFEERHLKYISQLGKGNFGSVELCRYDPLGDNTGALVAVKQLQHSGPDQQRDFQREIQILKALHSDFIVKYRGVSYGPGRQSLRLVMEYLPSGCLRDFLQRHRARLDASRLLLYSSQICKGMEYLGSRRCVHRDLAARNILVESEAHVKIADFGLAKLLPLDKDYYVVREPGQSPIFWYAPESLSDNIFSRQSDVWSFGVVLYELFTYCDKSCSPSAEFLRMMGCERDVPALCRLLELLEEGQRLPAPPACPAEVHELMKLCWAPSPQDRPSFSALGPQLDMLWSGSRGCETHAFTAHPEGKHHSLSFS
Description: Inhibition of human JAK3 kinase domain using biotin-Lyn-substrate-2 as substrate incubated for 1 hr by ELISA

[12] = target: MAP kinase-activated protein kinase 2 (Homo sapiens, UniProt P49137); assay: Inhibition of MAPKAPK2 (unknown origin)
Rattus norvegicus = assay: Immunosuppressive activity in Lewis rat transplanted with ACI rat cardiac tissue assessed as reduction in graft rejection by measuring mean survival days at 0.5 mg/kg, po administered for 14 consecutive days co-treated with tacrolimus (reference value: 10 days); format: functional; details: time 14 day
[13] = target: Ribosomal protein S6 kinase beta-1 (Homo sapiens, UniProt P23443); assay: Inhibition of p70S6K (unknown origin)
Chain of Ribosomal protein S6 kinase beta-1 (P23443 whole entry): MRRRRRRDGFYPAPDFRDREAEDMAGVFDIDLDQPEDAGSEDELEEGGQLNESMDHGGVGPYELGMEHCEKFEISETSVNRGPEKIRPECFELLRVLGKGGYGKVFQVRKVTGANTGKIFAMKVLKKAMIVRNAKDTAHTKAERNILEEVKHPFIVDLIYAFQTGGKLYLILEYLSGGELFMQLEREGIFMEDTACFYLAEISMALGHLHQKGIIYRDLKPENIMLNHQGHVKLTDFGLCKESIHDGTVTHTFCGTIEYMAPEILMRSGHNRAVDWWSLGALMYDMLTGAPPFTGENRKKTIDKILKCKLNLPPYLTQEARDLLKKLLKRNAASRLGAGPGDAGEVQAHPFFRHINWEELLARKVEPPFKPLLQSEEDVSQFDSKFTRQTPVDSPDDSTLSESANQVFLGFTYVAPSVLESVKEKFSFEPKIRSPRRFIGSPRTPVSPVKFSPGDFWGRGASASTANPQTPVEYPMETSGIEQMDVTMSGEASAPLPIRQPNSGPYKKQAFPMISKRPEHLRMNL

Chain of Angiopoietin-1 receptor (Q02763 whole entry): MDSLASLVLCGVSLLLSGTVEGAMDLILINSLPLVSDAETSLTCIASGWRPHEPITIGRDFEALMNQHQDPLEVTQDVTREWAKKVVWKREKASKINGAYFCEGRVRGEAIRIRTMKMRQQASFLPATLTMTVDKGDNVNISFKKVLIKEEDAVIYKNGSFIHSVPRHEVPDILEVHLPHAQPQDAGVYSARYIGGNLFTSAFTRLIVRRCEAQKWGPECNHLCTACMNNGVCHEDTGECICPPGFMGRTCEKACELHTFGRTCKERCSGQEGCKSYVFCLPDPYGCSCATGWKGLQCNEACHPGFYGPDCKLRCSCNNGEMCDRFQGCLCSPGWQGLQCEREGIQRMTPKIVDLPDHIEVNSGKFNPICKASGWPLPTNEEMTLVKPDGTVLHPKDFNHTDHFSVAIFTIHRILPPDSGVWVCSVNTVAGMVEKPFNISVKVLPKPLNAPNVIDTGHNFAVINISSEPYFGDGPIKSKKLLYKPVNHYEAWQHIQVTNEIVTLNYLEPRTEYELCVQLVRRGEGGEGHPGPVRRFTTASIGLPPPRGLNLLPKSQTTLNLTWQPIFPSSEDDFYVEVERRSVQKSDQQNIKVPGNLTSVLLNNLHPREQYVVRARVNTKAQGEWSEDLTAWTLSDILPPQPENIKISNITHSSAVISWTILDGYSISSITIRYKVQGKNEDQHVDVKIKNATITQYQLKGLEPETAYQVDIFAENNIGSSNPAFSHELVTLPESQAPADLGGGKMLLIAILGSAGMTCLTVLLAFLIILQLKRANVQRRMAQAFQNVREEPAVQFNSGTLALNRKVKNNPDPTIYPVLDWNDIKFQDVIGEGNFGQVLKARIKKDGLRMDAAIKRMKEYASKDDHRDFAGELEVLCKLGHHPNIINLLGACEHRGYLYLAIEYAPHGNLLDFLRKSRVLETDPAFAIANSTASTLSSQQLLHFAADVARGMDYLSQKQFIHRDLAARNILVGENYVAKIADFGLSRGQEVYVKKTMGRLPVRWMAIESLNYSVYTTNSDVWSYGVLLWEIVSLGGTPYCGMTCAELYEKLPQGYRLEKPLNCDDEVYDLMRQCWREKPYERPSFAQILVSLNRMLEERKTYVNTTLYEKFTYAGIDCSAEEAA
Chain of Calcium/calmodulin-dependent protein kinase type II subunit alpha (Q9UQM7 whole entry): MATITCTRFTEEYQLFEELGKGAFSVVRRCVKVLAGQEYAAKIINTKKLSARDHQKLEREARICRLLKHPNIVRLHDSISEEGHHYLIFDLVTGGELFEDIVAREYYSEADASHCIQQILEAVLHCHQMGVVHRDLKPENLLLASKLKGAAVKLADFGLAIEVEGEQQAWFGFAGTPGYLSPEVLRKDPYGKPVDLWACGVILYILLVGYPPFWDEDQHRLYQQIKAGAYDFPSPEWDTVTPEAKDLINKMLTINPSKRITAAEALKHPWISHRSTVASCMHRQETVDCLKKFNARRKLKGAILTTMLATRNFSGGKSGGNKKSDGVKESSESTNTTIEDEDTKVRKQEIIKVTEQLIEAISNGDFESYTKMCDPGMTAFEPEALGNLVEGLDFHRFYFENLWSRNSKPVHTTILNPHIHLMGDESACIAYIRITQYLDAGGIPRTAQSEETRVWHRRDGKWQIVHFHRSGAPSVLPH
Chain of Tyrosine-protein kinase ABL1 (P00519 whole entry): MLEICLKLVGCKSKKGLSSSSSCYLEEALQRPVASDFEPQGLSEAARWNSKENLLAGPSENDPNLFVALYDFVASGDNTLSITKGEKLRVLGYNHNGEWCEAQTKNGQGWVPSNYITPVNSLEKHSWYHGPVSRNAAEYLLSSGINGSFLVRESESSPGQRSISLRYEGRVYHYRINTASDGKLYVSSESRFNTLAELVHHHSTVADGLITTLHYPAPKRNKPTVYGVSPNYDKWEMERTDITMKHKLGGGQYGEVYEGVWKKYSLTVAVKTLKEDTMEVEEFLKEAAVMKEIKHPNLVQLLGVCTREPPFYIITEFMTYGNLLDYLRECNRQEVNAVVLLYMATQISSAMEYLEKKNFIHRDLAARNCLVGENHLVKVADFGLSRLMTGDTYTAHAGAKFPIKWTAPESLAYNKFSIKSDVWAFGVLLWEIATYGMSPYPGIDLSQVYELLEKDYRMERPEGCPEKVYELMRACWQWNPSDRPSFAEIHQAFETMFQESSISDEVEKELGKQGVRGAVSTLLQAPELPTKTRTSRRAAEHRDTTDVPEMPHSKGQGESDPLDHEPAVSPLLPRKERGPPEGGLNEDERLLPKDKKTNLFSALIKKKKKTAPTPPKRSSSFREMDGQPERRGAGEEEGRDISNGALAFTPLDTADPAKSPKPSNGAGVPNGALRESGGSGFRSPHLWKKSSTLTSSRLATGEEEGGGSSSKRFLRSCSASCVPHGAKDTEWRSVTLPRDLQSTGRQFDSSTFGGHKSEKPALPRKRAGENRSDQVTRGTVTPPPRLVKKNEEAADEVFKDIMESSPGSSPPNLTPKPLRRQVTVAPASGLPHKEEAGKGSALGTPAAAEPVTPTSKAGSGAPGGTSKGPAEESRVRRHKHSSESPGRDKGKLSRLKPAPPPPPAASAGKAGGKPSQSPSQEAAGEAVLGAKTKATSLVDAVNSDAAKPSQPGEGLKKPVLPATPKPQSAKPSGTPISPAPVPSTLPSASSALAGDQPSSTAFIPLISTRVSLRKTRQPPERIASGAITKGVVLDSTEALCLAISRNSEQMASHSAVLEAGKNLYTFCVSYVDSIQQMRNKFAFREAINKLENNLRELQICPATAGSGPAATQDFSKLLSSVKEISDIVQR
Chain of Mitogen-activated protein kinase 11 (Q15759 whole entry): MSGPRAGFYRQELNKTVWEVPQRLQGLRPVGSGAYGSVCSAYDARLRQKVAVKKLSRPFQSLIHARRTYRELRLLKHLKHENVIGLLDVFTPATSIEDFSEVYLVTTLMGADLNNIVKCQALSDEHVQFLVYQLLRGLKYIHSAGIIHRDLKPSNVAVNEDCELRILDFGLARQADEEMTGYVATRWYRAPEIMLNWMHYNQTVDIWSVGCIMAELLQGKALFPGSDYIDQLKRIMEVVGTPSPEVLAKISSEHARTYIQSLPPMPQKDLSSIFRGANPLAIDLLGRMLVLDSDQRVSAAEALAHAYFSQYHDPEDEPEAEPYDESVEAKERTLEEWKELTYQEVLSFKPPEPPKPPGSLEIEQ
Chain of MAP kinase-activated protein kinase 2 (P49137 whole entry): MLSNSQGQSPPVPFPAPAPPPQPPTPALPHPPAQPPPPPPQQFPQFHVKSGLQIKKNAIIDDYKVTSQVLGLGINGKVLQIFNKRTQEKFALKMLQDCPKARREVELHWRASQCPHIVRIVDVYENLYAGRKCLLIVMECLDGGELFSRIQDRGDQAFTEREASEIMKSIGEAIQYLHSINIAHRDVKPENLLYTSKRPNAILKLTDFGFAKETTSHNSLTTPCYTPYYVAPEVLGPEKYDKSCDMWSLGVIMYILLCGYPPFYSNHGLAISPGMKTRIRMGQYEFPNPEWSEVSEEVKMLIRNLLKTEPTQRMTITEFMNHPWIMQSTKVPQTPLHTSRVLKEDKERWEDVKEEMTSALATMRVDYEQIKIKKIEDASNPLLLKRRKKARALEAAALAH
Chain of Glycogen synthase kinase-3 beta (P49841 whole entry): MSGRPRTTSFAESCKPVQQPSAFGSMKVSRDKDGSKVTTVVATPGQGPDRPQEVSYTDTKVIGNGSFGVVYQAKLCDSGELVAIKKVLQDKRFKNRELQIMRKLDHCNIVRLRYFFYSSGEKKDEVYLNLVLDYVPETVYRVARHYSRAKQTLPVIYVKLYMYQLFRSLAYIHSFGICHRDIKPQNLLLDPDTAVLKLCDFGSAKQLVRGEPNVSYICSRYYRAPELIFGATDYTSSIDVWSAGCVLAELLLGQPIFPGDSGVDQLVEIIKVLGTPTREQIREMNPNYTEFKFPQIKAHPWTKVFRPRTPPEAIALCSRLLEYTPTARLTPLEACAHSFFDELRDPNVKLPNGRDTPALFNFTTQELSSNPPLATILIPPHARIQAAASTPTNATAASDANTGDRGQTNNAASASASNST
Chain of RAC-alpha serine/threonine-protein kinase (P31749 whole entry): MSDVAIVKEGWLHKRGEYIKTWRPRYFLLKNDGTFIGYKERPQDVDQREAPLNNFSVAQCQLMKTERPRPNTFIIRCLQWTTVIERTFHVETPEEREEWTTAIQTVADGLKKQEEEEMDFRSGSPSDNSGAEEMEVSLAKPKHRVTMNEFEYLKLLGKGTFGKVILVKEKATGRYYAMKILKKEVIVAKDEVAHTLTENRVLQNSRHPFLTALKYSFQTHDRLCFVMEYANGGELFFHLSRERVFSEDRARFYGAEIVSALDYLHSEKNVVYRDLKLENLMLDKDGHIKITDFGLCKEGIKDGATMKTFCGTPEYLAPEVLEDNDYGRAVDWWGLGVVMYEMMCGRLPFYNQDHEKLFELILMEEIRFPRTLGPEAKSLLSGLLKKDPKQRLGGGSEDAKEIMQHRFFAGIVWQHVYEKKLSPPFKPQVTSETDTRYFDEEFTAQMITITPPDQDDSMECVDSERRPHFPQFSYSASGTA

## C[C@@H]1CCN(C(=O)CC#N)C[C@@H]1n1ccc2cnc3[nH]ccc3c21
[1]
  IC50: > 1 µM
[2]
  IC50: > 1 µM
[3]
  IC50: > 1 µM
[4]
  IC50: > 1 µM
[5]
  Vd: 1.52 L/kg
[6]
  AUC(0-t) at 24 h: 917 ng·h/mL
[7]
  IC50: > 1 µM
[8]
  IC50: > 1 µM
[9]
  IC50: > 1 µM
Angiopoietin-1 receptor
  IC50: > 1 µM
[10]
  IC50: > 1 µM
[11]
  IC50: 0.00014 µM
[12]
  IC50: > 1 µM
Rattus norvegicus
  MST: 21 days
[13]
  IC50: > 1 µM
